Test results taken from ChEMBL document CHEMBL3352684, “Discovery of MK-3697: a selective orexin 2 receptor antagonist (2-SORA) for the treatment of insomnia” (Bioorg Med Chem Lett, 2014).
pEC50, pIC50, pKi: −log10 of the molar value. Activity calls are given as the source filed them. The rule behind the calls is not given here.

Legend:
[1] = target: T1, Orexin receptor type 2 (Rattus norvegicus) (UniProt P56719); assay: Antagonist activity at Sprague-Dawley rat OX2R by FLIPR assay
T1 sequence (whole entry): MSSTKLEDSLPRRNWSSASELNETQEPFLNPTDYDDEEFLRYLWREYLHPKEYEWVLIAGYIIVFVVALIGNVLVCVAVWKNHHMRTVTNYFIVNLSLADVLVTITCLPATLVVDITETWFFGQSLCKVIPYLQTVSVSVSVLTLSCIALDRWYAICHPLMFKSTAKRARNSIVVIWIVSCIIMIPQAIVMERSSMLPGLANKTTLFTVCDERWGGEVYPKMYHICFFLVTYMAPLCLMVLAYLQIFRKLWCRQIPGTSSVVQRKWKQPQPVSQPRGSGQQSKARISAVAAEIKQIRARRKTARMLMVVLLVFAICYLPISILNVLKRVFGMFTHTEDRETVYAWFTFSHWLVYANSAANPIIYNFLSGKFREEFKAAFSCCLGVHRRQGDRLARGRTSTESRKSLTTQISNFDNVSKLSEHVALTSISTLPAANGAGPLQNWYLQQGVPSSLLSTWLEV

[2] = Plasma protein binding in human; type: ADME, cell-free; conditions: read-out: PPB (converted)
Orexin receptor type 2 [3] = target: T2, Orexin receptor type 2 (Homo sapiens, UniProt O43614); assay: Displacement of (S)-N-(2-(1H-pyrrol-1-yl)phenyl)-1-(2-([3H]-1-methyl-1H-benzo[d]imidazol-2-ylthio)acetyl)pyrrolidine-2-carboxamide from human OX2R expressed in CHO cells after 3 hrs by topcount analysis; type: cell-based
T2 sequence (O43614 whole entry): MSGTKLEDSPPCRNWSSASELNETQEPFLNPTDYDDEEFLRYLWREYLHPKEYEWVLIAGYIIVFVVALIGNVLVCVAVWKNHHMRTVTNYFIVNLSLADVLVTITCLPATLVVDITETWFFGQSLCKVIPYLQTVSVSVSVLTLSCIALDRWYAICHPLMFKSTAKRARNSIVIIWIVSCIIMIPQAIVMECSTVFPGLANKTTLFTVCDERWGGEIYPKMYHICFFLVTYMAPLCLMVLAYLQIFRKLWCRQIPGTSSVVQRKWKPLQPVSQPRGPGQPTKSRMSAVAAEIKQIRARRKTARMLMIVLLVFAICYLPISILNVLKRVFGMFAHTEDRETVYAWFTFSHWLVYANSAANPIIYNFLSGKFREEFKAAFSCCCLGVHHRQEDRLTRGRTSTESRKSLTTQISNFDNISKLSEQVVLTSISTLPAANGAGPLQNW

[4] = AUC in Sprague-Dawley rat at 15 mg/kg, po; type: ADME, organism-based; set-up: dose 15 mg/kg, route oral; conditions: plasma
Mus musculus [5] = assay: Increase in slow wave sleep in mouse at 100 mg/kg, po after 2 hrs; type: functional, organism-based; set-up: dose 100 mg/kg
[6] = Drug uptake in mouse CSF at 100 mg/kg, po after 2 hrs; type: ADME, organism-based; set-up: dose 100 mg/kg, route oral; conditions: cerebrospinal fluid, read-out: Drug uptake
[7] = target: T3, Nuclear receptor subfamily 1 group I member 2 (Homo sapiens, UniProt O75469); assay: Activation of PXR (unknown origin) at 30 uM relative to rifampicin
T3 sequence (O75469 whole entry): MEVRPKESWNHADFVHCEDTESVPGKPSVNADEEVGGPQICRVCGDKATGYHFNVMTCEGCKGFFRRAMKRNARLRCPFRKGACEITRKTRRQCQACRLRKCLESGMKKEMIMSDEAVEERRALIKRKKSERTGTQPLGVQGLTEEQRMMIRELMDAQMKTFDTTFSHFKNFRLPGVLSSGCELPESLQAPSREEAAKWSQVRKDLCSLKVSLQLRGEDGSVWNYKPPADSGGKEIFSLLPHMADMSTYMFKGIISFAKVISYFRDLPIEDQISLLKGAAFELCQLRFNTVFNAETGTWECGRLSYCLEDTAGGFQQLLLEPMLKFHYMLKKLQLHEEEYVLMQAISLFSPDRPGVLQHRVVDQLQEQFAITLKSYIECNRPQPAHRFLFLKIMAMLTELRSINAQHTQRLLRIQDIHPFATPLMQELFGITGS

[8] = Plasma protein binding in dog; type: ADME, cell-free, Canis lupus familiaris; conditions: read-out: PPB (converted)
[9] = Tmax in dog at 3 mg/kg, po; type: ADME, organism-based, Canis lupus familiaris; set-up: dose 3 mg/kg, route oral; conditions: in vivo
[10] = Tmax in mouse at 100 mg/kg, po; type: ADME, organism-based; set-up: dose 100 mg/kg, route oral; conditions: in vivo
Canis familiaris [11] = assay: Increase in slow wave sleep in dog at 3 mg/kg, po after 2 hrs; type: functional, organism-based; set-up: dose 3 mg/kg; conditions: Canis lupus familiaris
Mus musculus [12] = assay: Reduction in active wake sleep in OX2R-knockout mouse at 100 mg/kg, po after 2 hrs; type: functional, organism-based; set-up: dose 100 mg/kg
[13] = Cmax in rat at 5 mg/kg, po; type: ADME, organism-based; set-up: dose 5 mg/kg, route oral; conditions: in vivo
[14] = AUC in dog at 3 mg/kg, po; type: ADME, organism-based, Canis lupus familiaris; set-up: dose 3 mg/kg, route oral; conditions: plasma
[15] = Volume of distribution at steady state in dog at 1 mg/kg, iv; type: ADME, organism-based, Canis lupus familiaris; set-up: dose 1 mg/kg, route intravenous; conditions: in vivo, read-out: Vdss
Rattus norvegicus = assay: Increase in rapid eye movement sleep in Sprague-Dawley rat at 15 mg/kg, po after 2 hrs; type: functional, organism-based; set-up: dose 15 mg/kg
Cytochrome P450 2D6 = Cytochrome P450 2D6 (Homo sapiens, UniProt P10635); assay: Reversible inhibition of CYP2D6 (unknown origin); type: ADME
[16] = target: T3, Nuclear receptor subfamily 1 group I member 2; assay: Activation of PXR (unknown origin)
[17] = Cmax in rat at dog at 3 mg/kg, po; type: ADME, organism-based, Canis lupus familiaris; set-up: dose 3 mg/kg, route oral; conditions: in vivo
Orexin receptor type 2 [18] = target: T2, Orexin receptor type 2; assay: Antagonist activity at human OX2R expressed in CHO cells assessed as inhibition of Ala-6,12-orexinA-induced effect after 5 mins by FLIPR assay; type: cell-based
Mus musculus [19] = assay: Increase in rapid eye movement sleep in mouse at 100 mg/kg, po after 2 hrs; type: functional, organism-based; set-up: dose 100 mg/kg
[20] = Half life in dog at 1 mg/kg, iv; type: ADME, organism-based, Canis lupus familiaris; set-up: dose 1 mg/kg, route intravenous; conditions: in vivo
[21] = AUC (0 to infinity) in dog at 3 mg/kg, po; type: ADME, organism-based, Canis lupus familiaris; set-up: time infinity, dose 3 mg/kg, route oral; conditions: plasma
[22] = Drug uptake in dog CSF at 3 mg/kg, po; type: ADME, organism-based, Canis lupus familiaris, Cerebrospinal fluid; set-up: dose 3 mg/kg, route oral; conditions: in vivo, read-out: Drug uptake
Cytochrome P450 2C9 = Cytochrome P450 2C9 (Homo sapiens, UniProt P11712); assay: Reversible inhibition of CYP2C9 (unknown origin); type: ADME
Canis familiaris [23] = assay: Reduction in active wake sleep in dog at 3 mg/kg, po after 2 hrs; type: functional, organism-based; set-up: dose 3 mg/kg; conditions: Canis lupus familiaris
[24] = Oral bioavailability in […] dog at 3 mg/kg; type: ADME, organism-based, Canis lupus familiaris; conditions: in vivo

Cytochrome P450 2D6, sequence (P10635 whole entry): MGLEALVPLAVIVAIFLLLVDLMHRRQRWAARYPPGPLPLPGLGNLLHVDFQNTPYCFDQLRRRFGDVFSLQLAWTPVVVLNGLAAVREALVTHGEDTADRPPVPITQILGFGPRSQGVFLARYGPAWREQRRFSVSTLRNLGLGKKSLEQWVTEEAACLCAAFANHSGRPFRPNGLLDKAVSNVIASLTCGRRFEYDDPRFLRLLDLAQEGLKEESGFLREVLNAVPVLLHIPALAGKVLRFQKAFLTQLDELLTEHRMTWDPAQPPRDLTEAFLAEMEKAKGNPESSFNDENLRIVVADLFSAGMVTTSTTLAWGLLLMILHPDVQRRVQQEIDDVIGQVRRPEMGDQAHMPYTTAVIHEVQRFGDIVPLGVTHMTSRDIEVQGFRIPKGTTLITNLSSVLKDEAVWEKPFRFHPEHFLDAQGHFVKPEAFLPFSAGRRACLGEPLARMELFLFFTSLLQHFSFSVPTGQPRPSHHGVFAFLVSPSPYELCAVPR
Cytochrome P450 2C9, sequence (P11712 whole entry): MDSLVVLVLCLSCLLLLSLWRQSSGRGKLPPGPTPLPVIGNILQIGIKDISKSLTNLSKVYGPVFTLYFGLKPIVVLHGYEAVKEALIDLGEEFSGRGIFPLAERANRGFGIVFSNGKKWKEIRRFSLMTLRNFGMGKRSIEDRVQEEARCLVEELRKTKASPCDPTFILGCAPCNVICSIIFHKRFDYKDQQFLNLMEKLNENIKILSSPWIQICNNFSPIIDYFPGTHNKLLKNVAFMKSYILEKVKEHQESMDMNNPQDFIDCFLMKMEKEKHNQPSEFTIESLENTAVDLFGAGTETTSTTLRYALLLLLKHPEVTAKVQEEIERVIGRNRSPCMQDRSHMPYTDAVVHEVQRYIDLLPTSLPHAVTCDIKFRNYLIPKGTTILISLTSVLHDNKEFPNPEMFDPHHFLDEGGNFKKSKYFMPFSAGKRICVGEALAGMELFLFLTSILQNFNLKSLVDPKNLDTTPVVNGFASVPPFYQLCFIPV

COc1ccc(CNC(=O)c2cc(-c3cncc(C)c3)ncc2-c2nccs2)nc1OC
INH [1]: 31 nM
fraction unbound [2]: 0.04
pKi (Orexin receptor type 2 [3]): 8.96
AUC [4]: 17.2 µM·h
Activity (Mus musculus [5]): Active
concentration at 2 h [6]: 4900 nM
Activity [7]: 16%
fraction unbound [8]: 0.169
Tmax [9]: 1 h
Tmax [10]: 2 h
Activity (Canis familiaris [11]): Active
Activity (Mus musculus [12]): inactive
Cmax [13]: 2100 nM
AUC [14]: 9 µM·h
Vd [15]: 0.7 L/kg
Activity (Rattus norvegicus): Active
pIC50 (Cytochrome P450 2D6): < 4.30
pEC50 [16]: < 4.52
Cmax [17]: 2100 nM
pIC50 (Orexin receptor type 2 [18]): 7.80
Activity (Mus musculus [19]): Active
half-life [20]: 1.2 h
AUC(0-inf) [21]: 7.5 µM·h
concentration [22]: 460 nM
pIC50 (Cytochrome P450 2C9): < 4.30
Activity (Canis familiaris [23]): Active
bioavailability [24]: 49%
